The values below come from publication PMC10999543, “Identification of kinase modulators as host-directed therapeutics against intracellular methicillin-resistant Staphylococcus aureus” (Frontiers in Cellular and Infection Microbiology, 2024).

The subject of one data set is intracellular MRSA. It counts as cell-based, Staphylococcus aureus. The settings on record: for %GFP+ rep 1 / z-scoreMRSA+ rep 1: replicate 1; for %GFP+ rep 2 / z-scoreMRSA+ rep 2: replicate 2; for %GFP+ rep 3 / z-scoreMRSA+ rep 3: replicate 3; for z-scoreMRSA+ mean: mean of 3 replicates. The essentials: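 HeLa, MRSA-GFP at MOI ~6.8, 1 h infection; gentamicin 30 µg/ml for 15 min; inhibitor plus gentamicin 5 µg/ml overnight, 37°C/5% CO2; triplicate plates; FACS %GFP+ and cell count; hit = z ≤ -2 MRSA+, z ≥ -3 count.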

The next data set concerns HeLa cells. Nature of the data set: Compound screen by flow cytometry: HeLa cell count as surrogate readout of cell viability (z-scoreHeLa). It counts as cell-based, human. The settings on record: for cell count rep 1 / z-scoreHeLa rep 1: replicate 1; for cell count rep 2 / z-scoreHeLa rep 2: replicate 2; for cell count rep 3 / z-scoreHeLa rep 3: replicate 3; for z-scoreHeLa mean: mean of 3 replicates. In a few lines: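 HeLa cells were infected with GFP-MRSA (mean MOI 6.8 ± 4.6) for 1 h, and extracellular bacteria were killed with 30 µg/ml gentamicin. Cells were then incubated overnight with kinase inhibitors in 5 µg/ml gentamicin, in triplicate against DMSO controls. Flow-cytometric cell count served as a viability surrogate, expressed as a plate z-score.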

[1] abbreviates: PKIS compound screen raw data, MRSA-infected HeLa cells.
[2] abbreviates: Yes/No: effect without cell death.
The mark [3] stands for this setting: compound screen, MRSA-infected HeLa cells.
[4] abbreviates: PKIS compound screen raw data, HeLa cell count.
[5] abbreviates: compound screen, HeLa cell count.
[6] abbreviates: PKIS compounds raw data, MRSA-infected HeLa cells.
The mark [7] stands for this setting: PKIS compounds raw data, HeLa cell count.
Where [8] appears, read: PKIS compound screen, Yes/No call.
The mark [9] stands for this setting: PKIS compound screen, Yes/No call (effect without cell death).
The mark [10] stands for this setting: PKIS compound screen, MRSA-infected HeLa cells.
The mark [11] stands for this setting: PKIS compound screen, HeLa cell count.

Molecules are shown by their SMILES. Read-outs that look alike come from different tables or passages of the source.

Turning to `COc1ccc(Nc2nccc(NCCNC(=O)Nc3ccccc3F)n2)cc1` [GSK1379901A], in the data set with intracellular MRSA (setting [1]), the “%GFP+ rep 1” value came out at 25.4%, the “%GFP+ rep 2” value is reported as 21.0% and the “%GFP+ rep 3” value came to 21.4%. The effect result in the data set with intracellular MRSA (Yes/No call from z-scoreMRSA+) is reported as “No”. Moreover, the hit result in the data set with intracellular MRSA (setting [2]) was “No”. In the data set with intracellular MRSA (setting [3]), the “z-scoreMRSA+ mean” value is -0.20, the “z-scoreMRSA+ rep 1” value is on record as 0.03, the “z-scoreMRSA+ rep 2” value is -0.39 and the “z-scoreMRSA+ rep 3” value is -0.24. In addition, in the data set on HeLa cells (setting [4]), the “cell count rep 1” value came to 4960, the “cell count rep 2” value was determined as 3999 and the “cell count rep 3” value was 4730. In addition, the cell death result with HeLa cells (Yes/No call from z-scoreHeLa) is “No”. In the data set on HeLa cells (setting [5]), the z-scoreHeLa mean is -0.04, the “z-scoreHeLa rep 1” value is given as 0.44, the “z-scoreHeLa rep 2” value is reported as -0.23 and the “z-scoreHeLa rep 3” value was -0.32.
With `O=C(Nc1n[nH]c2cc(-c3ccsc3)ccc12)C1CC1` [SB-732932], in the data set with intracellular MRSA (setting [6]), the “%GFP+ rep 1” value came to 25.2%, the “%GFP+ rep 2” value is recorded as 22.2% and the “%GFP+ rep 3” value is listed as 22.6%. In addition, the effect entry in the data set with intracellular MRSA (Yes/No call from z-scoreMRSA+) is “No”. In the data set on intracellular MRSA (setting [2]), the hit result was “No”. In addition, in the data set on intracellular MRSA (setting [3]), the “z-scoreMRSA+ mean” value worked out at 0.001, the “z-scoreMRSA+ rep 1” value was -0.0173, the “z-scoreMRSA+ rep 2” value is listed as -0.10 and the “z-scoreMRSA+ rep 3” value was 0.12. In the data set on HeLa cells (setting [7]), the “cell count rep 1” value was found to be 6278, the “cell count rep 2” value is 6296 and the “cell count rep 3” value came out at 8200. Moreover, the cell death entry in the data set with HeLa cells (Yes/No call from z-scoreHeLa) is recorded as “No”. In addition, in the data set with HeLa cells (setting [5]), the z-scoreHeLa mean was 1.60, the “z-scoreHeLa rep 1” value came out at 1.39, the “z-scoreHeLa rep 2” value amounted to 1.54 and the “z-scoreHeLa rep 3” value is on record as 1.87.
In the case of `CN(C)c1cc2c(Nc3ccc4c(cnn4Cc4ccccc4)c3)ncnc2cn1` [GW282974X], the effect result with intracellular MRSA (setting [8]) is “No”. Also, the hit entry in the data set with intracellular MRSA (setting [9]) was “No”. Moreover, in the data set on intracellular MRSA (PKIS compound screen), the “z-scoreMRSA+ mean” value is reported as -0.84, the “z-scoreMRSA+ rep 1” value is -0.54, the “z-scoreMRSA+ rep 2” value was -0.77 and the “z-scoreMRSA+ rep 3” value is -1.21. For the same compound, in the data set with intracellular MRSA (setting [6]), the “%GFP+ rep 1” value is given as 11.5%, the “%GFP+ rep 2” value stood at 11.2% and the “%GFP+ rep 3” value is listed as 11.8%. The cell death entry in the data set on HeLa cells (setting [8]) is “No”. For the same compound, in the data set on HeLa cells (PKIS compound screen), the z-scoreHeLa mean came out at 1.58, the “z-scoreHeLa rep 1” value is 0.95, the “z-scoreHeLa rep 2” value is given as 1.79 and the “z-scoreHeLa rep 3” value is recorded as 2.01. Besides, in the data set on HeLa cells (setting [7]), the “cell count rep 1” value is listed as 5822, the “cell count rep 2” value came to 6633 and the “cell count rep 3” value came to 11155.
On to `CCn1cc(-c2ccnc3[nH]ccc23)c(-c2cccc(NC(=O)Nc3ccc(OCc4ccccc4)cc3)c2)n1` [GSK718429A], for which, in the data set on intracellular MRSA (setting [6]), the “%GFP+ rep 1” value is 12.6%, the “%GFP+ rep 2” value turned out to be 13.0% and the “%GFP+ rep 3” value amounted to 13.2%. In the data set on intracellular MRSA (Yes/No call from z-scoreMRSA+), the effect result is “No”. Besides, the hit entry with intracellular MRSA (setting [2]) was “No”. In the data set with intracellular MRSA (setting [3]), the “z-scoreMRSA+ mean” value is recorded as -0.38, the “z-scoreMRSA+ rep 1” value is listed as -0.18, the “z-scoreMRSA+ rep 2” value is given as -0.17 and the “z-scoreMRSA+ rep 3” value is listed as -0.79. Besides, in the data set with HeLa cells (setting [7]), the “cell count rep 1” value was found to be 2721, the “cell count rep 2” value is reported as 2140 and the “cell count rep 3” value is listed as 4945. In addition, in the data set with HeLa cells (Yes/No call from z-scoreHeLa), the cell death entry is listed as “No”. Further, in the data set with HeLa cells (setting [5]), the z-scoreHeLa mean is recorded as -1.48, the “z-scoreHeLa rep 1” value is on record as -1.86, the “z-scoreHeLa rep 2” value was -1.61 and the “z-scoreHeLa rep 3” value was -0.96.
For `COC(=O)c1cccc(NC(=O)NC2CCN(c3ccnc(Nc4ccc(OC)cc4)n3)C2)c1` (centres unmarked) [GSK1379746A], in the data set with intracellular MRSA (setting [1]), the “%GFP+ rep 1” value came to 19.0%, the “%GFP+ rep 2” value is listed as 17.4% and the “%GFP+ rep 3” value came to 21.2%. For the same compound, in the data set with intracellular MRSA (setting [10]), the “z-scoreMRSA+ mean” value is reported as -0.17, the “z-scoreMRSA+ rep 1” value is listed as 0.06, the “z-scoreMRSA+ rep 2” value is listed as -0.55 and the “z-scoreMRSA+ rep 3” value is on record as -0.01. For the same compound, the effect result with intracellular MRSA (setting [8]) was “No”. The hit result in the data set with intracellular MRSA (setting [9]) is given as “No”. For the same compound, the effect result with intracellular MRSA (PKIS compound screen, Yes/No call on z-scoreMRSA+) is reported as “No”. Besides, in the data set on intracellular MRSA (PKIS compound screen), the “z-scoreMRSA+ mean” value was -0.13, the “z-scoreMRSA+ rep 1” value is listed as -0.05, the “z-scoreMRSA+ rep 2” value is reported as -0.0265 and the “z-scoreMRSA+ rep 3” value is given as -0.31. Besides, in the data set on intracellular MRSA (setting [6]), the “%GFP+ rep 1” value is given as 26.8%, the “%GFP+ rep 2” value was 25.9% and the “%GFP+ rep 3” value is reported as 25.6%. For the same compound, in the data set on HeLa cells (setting [4]), the “cell count rep 1” value came out at 24857, the “cell count rep 2” value stood at 18367 and the “cell count rep 3” value turned out to be 14326. In addition, in the data set on HeLa cells (setting [11]), the z-scoreHeLa mean is -0.99, the “z-scoreHeLa rep 1” value was -0.90, the “z-scoreHeLa rep 2” value is given as -1.18 and the “z-scoreHeLa rep 3” value was -0.90. Besides, the cell death entry in the data set with HeLa cells (setting [8]) was “No”. For the same compound, the cell death entry in the data set on HeLa cells (PKIS compound screen, Yes/No call on z-scoreHeLa) is given as “No”. For the same compound, in the data set on HeLa cells (PKIS compound screen), the z-scoreHeLa mean is reported as -0.86, the “z-scoreHeLa rep 1” value is reported as -1.12, the “z-scoreHeLa rep 2” value is listed as -1.01 and the “z-scoreHeLa rep 3” value is -0.44. Besides, in the data set with HeLa cells (setting [7]), the “cell count rep 1” value was 4181, the “cell count rep 2” value is 4486 and the “cell count rep 3” value came out at 4898.
For `c1ccc(-c2n[nH]cc2-c2ccnc(-c3ccc(CNC4CCOCC4)cc3)c2)nc1` [GW709213X], in the data set on intracellular MRSA (setting [1]), the “%GFP+ rep 1” value is given as 20.2%, the “%GFP+ rep 2” value turned out to be 23.4% and the “%GFP+ rep 3” value is recorded as 24.6%. In the data set on intracellular MRSA (Yes/No call from z-scoreMRSA+), the effect result was “No”. Moreover, the hit result with intracellular MRSA (setting [2]) is recorded as “No”. In the data set on intracellular MRSA (setting [3]), the “z-scoreMRSA+ mean” value was determined as 0.80, the “z-scoreMRSA+ rep 1” value is 0.38, the “z-scoreMRSA+ rep 2” value amounted to 1.09 and the “z-scoreMRSA+ rep 3” value is 0.92. In the data set with HeLa cells (setting [4]), the “cell count rep 1” value was 27129, the “cell count rep 2” value is recorded as 33773 and the “cell count rep 3” value is recorded as 22823. In addition, the cell death result in the data set with HeLa cells (Yes/No call from z-scoreHeLa) is listed as “No”. In the data set on HeLa cells (setting [5]), the z-scoreHeLa mean worked out at 0.57, the “z-scoreHeLa rep 1” value is given as -0.52, the “z-scoreHeLa rep 2” value was 1.46 and the “z-scoreHeLa rep 3” value is 0.76.
With `Nc1ncc(-c2ccncc2)c2scc(-c3ccc4c(c3)CCN4C(=O)Cc3ccccc3)c12` [GSK2592465A], in the data set on intracellular MRSA (setting [1]), the “%GFP+ rep 1” value amounted to 23.8%, the “%GFP+ rep 2” value is on record as 25.0% and the “%GFP+ rep 3” value is listed as 22.8%. Also, the effect result in the data set with intracellular MRSA (Yes/No call from z-scoreMRSA+) is listed as “No”. Further, the hit result in the data set with intracellular MRSA (setting [2]) is “No”. For the same compound, in the data set on intracellular MRSA (setting [3]), the “z-scoreMRSA+ mean” value is 0.14, the “z-scoreMRSA+ rep 1” value was -0.34, the “z-scoreMRSA+ rep 2” value is on record as 0.58 and the “z-scoreMRSA+ rep 3” value is on record as 0.18. Further, in the data set with HeLa cells (setting [4]), the “cell count rep 1” value is on record as 4912, the “cell count rep 2” value was 4633 and the “cell count rep 3” value was 5392. Moreover, the cell death result in the data set on HeLa cells (Yes/No call from z-scoreHeLa) is given as “No”. In the data set with HeLa cells (setting [5]), the z-scoreHeLa mean is 0.25, the “z-scoreHeLa rep 1” value worked out at 0.40, the “z-scoreHeLa rep 2” value is 0.26 and the “z-scoreHeLa rep 3” value is reported as 0.10.
Take `COc1ccccc1-c1cc(/C=C2\C(=O)Nc3ncc(Br)cc32)cc(Br)c1O` [GW442130X]: in the data set on intracellular MRSA (setting [6]), the “%GFP+ rep 1” value was found to be 14.9%, the “%GFP+ rep 2” value is 16.4% and the “%GFP+ rep 3” value came out at 14.1%. Further, the effect result with intracellular MRSA (Yes/No call from z-scoreMRSA+) is listed as “No”. The hit result with intracellular MRSA (setting [2]) is on record as “No”. Besides, in the data set with intracellular MRSA (setting [3]), the “z-scoreMRSA+ mean” value was found to be 0.33, the “z-scoreMRSA+ rep 1” value was 0.55, the “z-scoreMRSA+ rep 2” value was determined as 0.97 and the “z-scoreMRSA+ rep 3” value is -0.53. Also, in the data set with HeLa cells (setting [7]), the “cell count rep 1” value is given as 3648, the “cell count rep 2” value worked out at 4731 and the “cell count rep 3” value was 6669. In the data set with HeLa cells (Yes/No call from z-scoreHeLa), the cell death result is “No”. Also, in the data set on HeLa cells (setting [5]), the z-scoreHeLa mean was -0.27, the “z-scoreHeLa rep 1” value was -1.02, the “z-scoreHeLa rep 2” value turned out to be 0.35 and the “z-scoreHeLa rep 3” value was -0.14.
